Test results taken from the NIST ThermoML archive (doi:10.1016/j.jct.2015.12.025).
Several values for one entry are separate records, joined by “and”; a condition that tells them apart may be missing. Equal entries are not always repeated.

Assays:
[1] = 102 kPa, Liquid, Vibrating tube method
[2] = refractive index (Na D-line) (dimensionless); conditions: 102 kPa, Liquid, Standard Abbe refractometry
[3] = refractive index (Na D-line) (dimensionless); xn = mol fraction of the nth substance listed; conditions: 102 kPa, Liquid, Standard Abbe refractometry
[4] = xn = mol fraction of the nth substance listed; conditions: 102 kPa, Liquid, Vibrating tube method

C[Si]1(CCC(F)(F)F)O[Si](C)(CCC(F)(F)F)O[Si](C)(CCC(F)(F)F)O1 (stereo not drawn)
Conditions | mass density, 308.15 K [kg/m3] | mass density, 313.15 K [kg/m3] | mass density, 318.15 K [kg/m3] | mass density, 323.15 K [kg/m3] | refractive index, 308.15 K | refractive index, 313.15 K | refractive index, 318.15 K | refractive index, 323.15 K
[1] | 1236.63 | 1230.05 | 1223.55 | 1216.99 | – | – | – | –
[2] | – | – | – | – | 1.36011 | 1.35808 | 1.35609 and 1.35608 | 1.35407

C[Si]1(CCC(F)(F)F)O[Si](C)(CCC(F)(F)F)O[Si](C)(CCC(F)(F)F)O1 (stereo not drawn) + CC(C)(C)c1ccccc1
x1 = 1
Conditions | mass density, 308.15 K [kg/m3] | mass density, 313.15 K [kg/m3] | mass density, 318.15 K [kg/m3] | mass density, 323.15 K [kg/m3] | refractive index, 308.15 K | refractive index, 313.15 K | refractive index, 318.15 K | refractive index, 323.15 K
[3] | – | – | – | – | 1.36011 | 1.35808 | 1.35609 | 1.35407
[4] | 1236.63 | 1230.05 | 1223.55 | 1216.99 | – | – | – | –

CC(C)(C)c1ccccc1 [(1,1-dimethylethyl)benzene]
Conditions | mass density, 298.15 K [kg/m3] | mass density, 308.15 K [kg/m3] | mass density, 313.15 K [kg/m3] | mass density, 318.15 K [kg/m3] | mass density, 323.15 K [kg/m3] | refractive index, 298.15 K | refractive index, 308.15 K | refractive index, 313.15 K | refractive index, 318.15 K | refractive index, 323.15 K
[1] | 862.28 | 854.12 | 849.98 | 845.87 | 841.72 | – | – | – | – | –
[2] | – | – | – | – | – | 1.49009 | 1.48509 | 1.48256 | 1.48007 | 1.47754

COc1ccccc1 [anisole]
Conditions | mass density, 298.15 K [kg/m3] | mass density, 308.15 K [kg/m3] | mass density, 313.15 K [kg/m3] | mass density, 318.15 K [kg/m3] | mass density, 323.15 K [kg/m3] | refractive index, 298.15 K | refractive index, 308.15 K | refractive index, 313.15 K | refractive index, 318.15 K | refractive index, 323.15 K
[1] | 989.32 | 980.04 | 975.25 | 970.52 | 965.73 | – | – | – | – | –
[2] | – | – | – | – | – | 1.5146 | 1.50865 | 1.50604 | 1.50341 | 1.50073

COc1ccccc1 [anisole] + C[Si]1(CCC(F)(F)F)O[Si](C)(CCC(F)(F)F)O[Si](C)(CCC(F)(F)F)O1
x2 = 0
Conditions | mass density, 308.15 K [kg/m3] | mass density, 313.15 K [kg/m3] | mass density, 318.15 K [kg/m3] | mass density, 323.15 K [kg/m3] | refractive index, 308.15 K | refractive index, 313.15 K | refractive index, 318.15 K | refractive index, 323.15 K
[3] | – | – | – | – | 1.50865 | 1.50604 | 1.50341 | 1.50073
[4] | 980.04 | 975.25 | 970.52 | 965.73 | – | – | – | –

CCc1ccccc1 [ethylbenzene]
Conditions | mass density, [1] [kg/m3] | refractive index, [2]
298.15 K | 862.58 | 1.49301
303.15 K | – | 1.4903
308.15 K | 853.71 | 1.4876
313.15 K | 849.29 | 1.48491
318.15 K | 844.7 | 1.48217
323.15 K | 840.28 | 1.47944

CCc1ccccc1 [ethylbenzene] + C[Si]1(CCC(F)(F)F)O[Si](C)(CCC(F)(F)F)O[Si](C)(CCC(F)(F)F)O1
x2 = 0
Conditions | mass density, 308.15 K [kg/m3] | mass density, 313.15 K [kg/m3] | mass density, 318.15 K [kg/m3] | mass density, 323.15 K [kg/m3] | refractive index, 308.15 K | refractive index, 313.15 K | refractive index, 318.15 K | refractive index, 323.15 K
[3] | – | – | – | – | 1.4876 | 1.48491 | 1.48217 | 1.47944
[4] | 853.71 | 849.29 | 844.7 | 840.28 | – | – | – | –

O=[N+]([O-])c1ccccc1 [nitrobenzene]
Conditions | mass density, [1] [kg/m3] | refractive index, [2]
298.15 K | 1198.2 | 1.54992
303.15 K | 1193.25 | 1.54746
308.15 K | 1188.17 | 1.545
313.15 K | 1183.21 | 1.5425
318.15 K | 1178.24 | 1.54005
323.15 K | 1173.26 | 1.53757

O=[N+]([O-])c1ccccc1 [nitrobenzene] + C[Si]1(CCC(F)(F)F)O[Si](C)(CCC(F)(F)F)O[Si](C)(CCC(F)(F)F)O1
x2 = 0
Conditions | mass density, 308.15 K [kg/m3] | mass density, 313.15 K [kg/m3] | mass density, 318.15 K [kg/m3] | mass density, 323.15 K [kg/m3] | refractive index, 308.15 K | refractive index, 313.15 K | refractive index, 318.15 K | refractive index, 323.15 K
[3] | – | – | – | – | 1.545 | 1.5425 | 1.54005 | 1.53757
[4] | 1188.17 | 1183.21 | 1178.24 | 1173.26 | – | – | – | –
